Measured values as given in US20150181881A1, “METHODS FOR CONTROLLING FUNGAL DISEASES IN MUSHROOM PRODUCTION” (DSM IP ASSETS B.V., priority 2012, published 2015).

Tests used:
Trichoderma harzianum = experiment: In vitro antifungal activity in 96-well microtiter plates against Trichoderma harzianum; assay type: cell-based
Method: Subsequently, 100 μl of a Verticillium fungicola suspension prepared in PCB medium is used to inoculate each well with 5.0×10^3 spores/ml.
, the in vitro antifungal activity (%) of the individual active ingredients was assessed by calculating the reduction in mould growth observed in the presence of the active ingredient in comparison to the mould growth observed in the absence of the active ingredient. The expected antifungal activity (E in %) of the active ingredient combination was calculated according to the Colby equation (Colby, 1967): […]
wherein X and Y are the observed antifungal activities (in %) of the individual active ingredients X and Y, respectively. If the observed antifungal activity (O in %) of the combination exceeds the expected antifungal activity (E in %) of the combination and the resulting synergy factor O/E is thus >1.0, the combined application of the active ingredients leads to a synergistic antifungal effect.
Furthermore, Trichoderma harzianum was used for inoculation.

Verticillium fungicola = experiment: In vitro antifungal activity in 96-well microtiter plates against Verticillium fungicola; assay type: cell-based
Method: The following compositions are tested: • Control (no active ingredient), • 1.25 or 2.5 ppm natamycin (DSM Food Specialties, Delft, The Netherlands), • 0.5 ppm chlorothalonil, • 1.25 ppm natamycin+0.5 ppm chlorothalonil, • 2.5 ppm natamycin+0.5 ppm chlorothalonil. […] Subsequently, 100 μl of a Verticillium fungicola suspension prepared in PCB medium is used to inoculate each well with 5.0×10^3 spores/ml. […] After incubation of the microtiter plates for 3 and 5 days at 25° C., the in vitro antifungal activity (%) of the individual active ingredients was assessed by calculating the reduction in mould growth observed in the presence of the active ingredient in comparison to the mould growth observed in the absence of the active ingredient. The expected antifungal activity (E in %) of the active ingredient combination was calculated according to the Colby equation (Colby, 1967): […] wherein X and Y are the observed antifungal activities (in %) of the individual active ingredients X and Y, respectively.

[1] = Chlorothalonil 0.5 ppm, incubation 5 days at 25° C.

Measured: Observed antifungal activity O (%)

N#Cc1c(Cl)c(Cl)c(Cl)c(C#N)c1Cl [Chlorothalonil, 2,4,5,6-tetrachloroisophthalonitrile]
0%: Trichoderma harzianum; [1] | Trichoderma harzianum; Chlorothalonil 1.0 ppm, incubation 10 days at 25° C. | Trichoderma harzianum; Chlorothalonil 1.0 ppm, incubation 17 days at 25° C. | Trichoderma harzianum; Chlorothalonil 1.5 ppm, incubation 17 days at 25° C. | Verticillium fungicola; Chlorothalonil 0.5 ppm, incubation 3 days at 25° C. | Verticillium fungicola; [1]

C[C@@H]1C/C=C/C=C/C=C/C=C/[C@H](O[C@@H]2O[C@H](C)[C@@H](O)[C@H](N)[C@@H]2O)C[C@@H]2O[C@](O)(C[C@@H](O)C[C@H]3O[C@@H]3/C=C/C(=O)O1)C[C@H](O)[C@H]2C(=O)O [Natamycin, natamycin]
0%: Trichoderma harzianum; Natamycin 1.25 ppm, incubation 5 days at 25° C. | Trichoderma harzianum; Natamycin 1.25 ppm, incubation 10 days at 25° C. | Trichoderma harzianum; Natamycin 1.25 ppm, incubation 17 days at 25° C. | Trichoderma harzianum; Natamycin 2.5 ppm, incubation 17 days at 25° C. | Verticillium fungicola; Natamycin 1.25 ppm, incubation 3 days at 25° C. | Verticillium fungicola; Natamycin 2.5 ppm, incubation 5 days at 25° C.
